Data from publication PMC5365648, “Pharmacokinetics of the Novel Echinocandin CD101 in Multiple Animal Species” (Antimicrobial Agents and Chemotherapy, 2017).
“Also recorded” adds a separate entry of the source. Starred links: 1 amine or outer side, 2 acyl side, 3 side chain; linkers in the order of their positions; H or OH if unused. Positions of bridges follow the written chain, without caps; N, C: chain ends. Non-standard residues stand in square brackets, D forms with d. Residues, ends and D or L forms follow the SMILES beside them. *: point of attachment. Orn(4R-OH,5R-OCH2CH2NMe3+) = C[N+](C)(C)CCO[C@@H](N[*:3])[C@H](O)C[C@H](N[*:1])C(=O)[*:2]; pTerphenylCO(4''-OnC5H11) = CCCCCOc1ccc(-c2ccc(-c3ccc(C(=O)*)cc3)cc2)cc1; hTyr(3S-OH,4S-OH) = N[C@H](C(=O)O)[C@H](O)[C@@H](O)c1ccc(O)cc1; Pro(3S-OH,4S-Me) = C[C@H]1CN[C@H](C(=O)O)[C@H]1O; Hyp = O=C(O)[C@@H]1C[C@@H](O)CN1

Key:
[1] = Rat pharmacokinetics, i.v. bolus; format: in vivo, Sprague-Dawley rats
Protocol: In one of three rat studies reported here, a single 5-, 15-, or 45-mg/kg dose of CD101 was administered by slow i.v. bolus (∼3 min) to Sprague-Dawley rats (n = 3 to 5/dose). Blood samples (via jugular vein catheter [JVC]) were drawn for plasma processing at 0.083, 0.25, 0.5, 1, 2, 4, 8, 24, 48, 120, 168, and 240 h after dosing. In the second rat study, conducted to assess tissue distribution, a single 5-mg/kg dose of CD101 was administered by slow i.v. bolus (∼3 min) to male Sprague-Dawley rats (n = 3 animals/time point). Blood samples (via cardiac puncture) were collected for plasma processing predose and at 0.083, 0.5, 1, 2, 4, 8, 24, 48, 72, 96, and 120 h postdose. In parallel with blood collection, animals were euthanized, and tissues (liver, lungs, kidneys, heart, spleen, and brain) were excised and frozen prior to analysis. In the third rat study, conducted to assess excretion, a single 5-mg/kg dose of CD101 was administered by slow i.v. bolus (∼3 min) to bile duct-cannulated male Sprague-Dawley rats (n = 3). Bile samples were collected from each animal into prelabeled bile collection tubes predose and at 0 to 8, 8 to 24, 24 to 48, 48 to 72, 72 to 96, and 96 to 120 h postdose; urine samples were collected from each animal at the same time points pre- and postdose.
(§1) For each of the pharmacokinetic studies, whole-blood samples (K3EDTA as anticoagulant) were collected and centrifuged within 30 min of collection. The resulting plasma was harvested and stored at −20°C until analysis. Tissue samples were homogenized by a bead-based homogenizer following the addition of deionized water to excised tissue in a 2:1 (vol/wt) ratio and stored at −20°C until analysis. Prior to analysis, plasma or homogenized tissue samples were quenched with acetonitrile (3:1, acetonitrile-plasma or tissue ratio) containing an appropriate internal standard (isotopically labeled d9-CD101 [mouse and rat] or a structural analog [dog, monkey, and chimpanzee]). Plasma and tissue homogenate concentrations (quantified against calibration standards processed the same way) were determined by reverse-phase, gradient liquid chromatography with tandem mass spectrometric detection (LC-MS/MS) using an AB-SCIEX API 3200Q/4000 mass spectrometry system. Calibration standard ranges were the following: 0.400 (lower limit of quantitation, [LLOQ]) to 200 μg/ml (CD101, mouse), 0.040 (LLOQ) to 10 μg/ml (anidulafungin, mouse), 0.002 (LLOQ) to 10 μg/ml (CD101, rat), 0.005 (LLOQ) to 10 μg/ml (anidulafungin, rat), 0.050 (LLOQ) to 10 μg/ml (CD101, dog), 0.020 (LLOQ) to 10 μg/ml (anidulafungin, dog), 0.010 (LLOQ) to 10 μg/ml (CD101, monkey), 0.001 (LLOQ) to 10 μg/ml (anidulafungin, monkey), 0.015 (LLOQ) to 10 μg/ml (CD101, chimpanzee), and 0.015 (LLOQ) to 10 μg/ml (anidulafungin, chimpanzee). When necessary, dilutions with blank matrix were made for samples that quantified above the upper limit of quantitation. The methods used in the analysis were qualified as fit for purpose: calibration standards were matrix matched with the exception that human plasma calibration standards were used to analyze chimpanzee plasma samples due to the rarity of blank chimpanzee plasma, and, for each analytical batch, triplicate calibration standards were included at the beginning, approximately in the middle, and at the end of the batch. Following analysis, quantitation was carried out by a calibration curve comprising the analyte/internal standard area ratio versus concentration. Analytical batch acceptance followed the general guidance that triplicate standards/quality controls be within ±20% for accuracy (percentage of nominal concentration) and ≤20% for precision (percent coefficient of variation).
(§2) Pharmacokinetic parameters were calculated by noncompartmental analysis using Phoenix WinNonlin (version 6.3; Pharsight, Mountain View, CA) from either individual or mean (mouse) concentration-time profiles. An unpaired t test was used to compare mean exposures from male and female rats.

[2] = Cynomolgus monkey pharmacokinetics, i.v. bolus; parameters: species or system cynomolgus monkeys; details: in vivo, iv, male cynomolgus monkeys, single 2.13 mg/kg slow i.v. bolus, plasma, LC-MS/MS, noncompartmental
Protocol: A single dose of 2.13 mg/kg CD101 or 2.8 mg/kg anidulafungin was administered by slow i.v. bolus (∼10 min) to cynomolgus monkeys (n = 3/group), and blood samples (via peripheral vein) were drawn for plasma processing at 0.167, 0.5, 1, 3, 8, 12, 24, 48, and 72 h postdose.
as §1, §2

[3] = human plasma; ref [9]; cited from earlier work
Text: In the case of brain concentrations, there was little difference across all the collection intervals. Given the relatively low concentrations and small differences across times, measured concentrations may reflect contamination from residual whole blood during the collec ...

[4] = rat, in vivo, iv, 5 mg/kg, female Sprague-Dawley rats, single 5 mg/kg slow i.v. bolus, plasma, LC-MS/MS, noncompartmental, n = 3 to 5/dose
[5] = rat, in vivo, iv, 5 mg/kg, male Sprague-Dawley rats, single 5 mg/kg slow i.v. bolus, plasma, LC-MS/MS, noncompartmental, n = 3 to 5/dose
[6] = rat, in vivo, iv, 15 mg/kg, female Sprague-Dawley rats, single 15 mg/kg slow i.v. bolus, plasma, LC-MS/MS, noncompartmental, n = 3 to 5/dose
[7] = rat, in vivo, iv, 15 mg/kg, male Sprague-Dawley rats, single 15 mg/kg slow i.v. bolus, plasma, LC-MS/MS, noncompartmental, n = 3 to 5/dose
[8] = rat, in vivo, iv, 45 mg/kg, female Sprague-Dawley rats, single 45 mg/kg slow i.v. bolus, plasma, LC-MS/MS, noncompartmental, n = 3 to 5/dose
[9] = rat, in vivo, iv, 45 mg/kg, male Sprague-Dawley rats, single 45 mg/kg slow i.v. bolus, plasma, LC-MS/MS, noncompartmental, n = 3 to 5/dose

CCCCCOc1ccc(-c2ccc(-c3ccc(C(=O)N[C@H]4C[C@@H](O)[C@@H](OCC[N+](C)(C)C)NC(=O)[C@@H]5[C@@H](O)[C@@H](C)CN5C(=O)[C@H]([C@@H](C)O)NC(=O)[C@H]([C@H](O)[C@@H](O)c5ccc(O)cc5)NC(=O)[C@@H]5C[C@@H](O)CN5C(=O)[C@H]([C@@H](C)O)NC4=O)cc3)cc2)cc1 [CD101] ({pTerphenylCO(4''-OnC5H11)}-[Orn(4R-OH,5R-OCH2CH2NMe3+)]T[Hyp][hTyr(3S-OH,4S-OH)]T[Pro(3S-OH,4S-Me)]; lactam 1-C)
Tmax ([1]; female Sprague-Dawley rats, single 5 mg/kg slow i.v. bolus, plasma, LC-MS/MS, noncompartmental, n = 3 to 5/dose): 4.98 min | Tmax ([1]; male Sprague-Dawley rats, single 15 mg/kg slow i.v. bolus, plasma, LC-MS/MS, noncompartmental, n = 3 to 5/dose): 4.98 min | Tmax ([1]; male Sprague-Dawley rats, single 45 mg/kg slow i.v. bolus, plasma, LC-MS/MS, noncompartmental, n = 3 to 5/dose): 4.98 min | AUC(0-inf) [1, 4]: 188 µg·h/mL | AUC(0-t) [1, 4]: 185 µg·h/mL | Cmax [1, 4]: 10500 ng/mL | half-life [1, 4]: 35.7 h | clearance ([1]; rat, in vivo, iv, 5 mg/kg, female Sprague-Dawley rats, single 5 mg/kg slow i.v. bolus, plasma, LC-MS/MS, noncompartmental, n = 3 to 5/dose, read-out: CL (clearance)): 0.444 mL/min/kg | Vd ([1]; rat, in vivo, iv, 5 mg/kg, female Sprague-Dawley rats, single 5 mg/kg slow i.v. bolus, plasma, LC-MS/MS, noncompartmental, n = 3 to 5/dose, read-out: Vss (volume of distribution at steady state)): 1.21 L/kg | AUC(0-inf) [1, 5]: 183 µg·h/mL | AUC(0-t) [1, 5]: 180 µg·h/mL | Cmax [1, 5]: 12000 ng/mL | half-life [1, 5]: 34.9 h | clearance ([1]; rat, in vivo, iv, 5 mg/kg, male Sprague-Dawley rats, single 5 mg/kg slow i.v. bolus, plasma, LC-MS/MS, noncompartmental, n = 3 to 5/dose, read-out: CL (clearance)): 0.456 mL/min/kg | Vd ([1]; rat, in vivo, iv, 5 mg/kg, male Sprague-Dawley rats, single 5 mg/kg slow i.v. bolus, plasma, LC-MS/MS, noncompartmental, n = 3 to 5/dose, read-out: Vss (volume of distribution at steady state)): 1.16 L/kg | AUC(0-inf) [1, 6]: 441 µg·h/mL | AUC(0-t) [1, 6]: 435 µg·h/mL | Cmax [1, 6]: 27600 ng/mL | half-life [1, 6]: 34.9 h | clearance ([1]; rat, in vivo, iv, 15 mg/kg, female Sprague-Dawley rats, single 15 mg/kg slow i.v. bolus, plasma, LC-MS/MS, noncompartmental, n = 3 to 5/dose, read-out: CL (clearance)): 0.567 mL/min/kg | Vd ([1]; rat, in vivo, iv, 15 mg/kg, female Sprague-Dawley rats, single 15 mg/kg slow i.v. bolus, plasma, LC-MS/MS, noncompartmental, n = 3 to 5/dose, read-out: Vss (volume of distribution at steady state)): 1.45 L/kg | AUC(0-inf) [1, 7]: 580 µg·h/mL | AUC(0-t) [1, 7]: 562 µg·h/mL | Cmax [1, 7]: 35900 ng/mL | half-life [1, 7]: 42.7 h | clearance ([1]; rat, in vivo, iv, 15 mg/kg, male Sprague-Dawley rats, single 15 mg/kg slow i.v. bolus, plasma, LC-MS/MS, noncompartmental, n = 3 to 5/dose, read-out: CL (clearance)): 0.431 mL/min/kg | Vd ([1]; rat, in vivo, iv, 15 mg/kg, male Sprague-Dawley rats, single 15 mg/kg slow i.v. bolus, plasma, LC-MS/MS, noncompartmental, n = 3 to 5/dose, read-out: Vss (volume of distribution at steady state)): 1.42 L/kg | AUC(0-inf) [1, 8]: 1510 µg·h/mL | AUC(0-t) [1, 8]: 1490 µg·h/mL | Cmax [1, 8]: 115000 ng/mL | half-life [1, 8]: 39.9 h | clearance ([1]; rat, in vivo, iv, 45 mg/kg, female Sprague-Dawley rats, single 45 mg/kg slow i.v. bolus, plasma, LC-MS/MS, noncompartmental, n = 3 to 5/dose, read-out: CL (clearance)): 0.496 mL/min/kg | Vd ([1]; rat, in vivo, iv, 45 mg/kg, female Sprague-Dawley rats, single 45 mg/kg slow i.v. bolus, plasma, LC-MS/MS, noncompartmental, n = 3 to 5/dose, read-out: Vss (volume of distribution at steady state)): 1.55 L/kg | AUC(0-inf) [1, 9]: 1660 µg·h/mL | AUC(0-t) [1, 9]: 1610 µg·h/mL | Cmax [1, 9]: 164000 ng/mL | half-life [1, 9]: 44.5 h | clearance ([1]; rat, in vivo, iv, 45 mg/kg, male Sprague-Dawley rats, single 45 mg/kg slow i.v. bolus, plasma, LC-MS/MS, noncompartmental, n = 3 to 5/dose, read-out: CL (clearance)): 0.452 mL/min/kg | Vd ([1]; rat, in vivo, iv, 45 mg/kg, male Sprague-Dawley rats, single 45 mg/kg slow i.v. bolus, plasma, LC-MS/MS, noncompartmental, n = 3 to 5/dose, read-out: Vss (volume of distribution at steady state)): 1.57 L/kg | Vd ([1]; rat, in vivo, iv, rat, intravenous, one value for the species as given in the abstract (doses 5, 15, 45 mg/kg, both sexes in Table 1), read-out: Vss): 1.39 L/kg | clearance ([1]; rat, in vivo, iv, rat, intravenous, one value for the species as given in the abstract (doses 5, 15, 45 mg/kg, both sexes in Table 1), read-out: clearance): 0.47 mL/min/kg | Tmax ([1]; rat, in vivo, iv, female Sprague-Dawley rats, single 15 mg/kg slow i.v. bolus, plasma, LC-MS/MS, noncompartmental, n = 3 to 5/dose, read-out: Tmax): 4.98 min | Tmax ([1]; rat, in vivo, iv, female Sprague-Dawley rats, single 45 mg/kg slow i.v. bolus, plasma, LC-MS/MS, noncompartmental, n = 3 to 5/dose, read-out: Tmax): 4.98 min | Tmax ([1]; rat, in vivo, iv, male Sprague-Dawley rats, single 5 mg/kg slow i.v. bolus, plasma, LC-MS/MS, noncompartmental, n = 3 to 5/dose, read-out: Tmax): 4.98 min | half-life ([1]; rat, in vivo, iv, one value for the species as given in the abstract (doses 5, 15, 45 mg/kg, both sexes in Table 1)): 39 h | PK differences between males and females ([1]; rats (Table 1) or monkeys (data not shown)): no sex differences; also recorded: No PK differences between males and females | AUC(0-t) ([2]; n = 3): 92.1 µg·h/mL | Cmax ([2]; n = 3): 9070 ng/mL | Tmax ([2]; n = 3): 0.167 h | half-life ([2]; n = 3): 39.7 h | clearance ([2]; n = 3, read-out: CL (clearance)): 0.405 mL/min/kg | Vd ([2]; n = 3, read-out: Vss (volume of distribution at steady state)): 0.597 L/kg | protein bound [3]: 98.7%
